From patent US8759099B2, “Pancreatic islet separation method, and protective solution for protecting pancreatic islet tissue” (Otsuka Pharmaceutical Factory, Inc., priority 2010, dated 2014)

Tested on: mouse islets
Assay: LDH leakage cytotoxicity of mouse islets cultured in the presence of neutrophil elastase
Type: cell-based
Settings: FIG. 3
Procedure: The concentration of the neutrophil elastase inhibitor used in the isolation method of the present invention was examined as follows using the extracellular leakage of LDH (lactate dehydrogenase) (indicator for cytotoxicity) as an indicator.
First, mouse islets were cultured in the presence of neutrophil elastase at a concentration of 0.31 to 10 μg/mL and the supernatant was collected after a lapse of a certain time. Subsequently, the remaining mouse islets were homogenized and the islet suspension was collected. LDH contained in the collected supernatant and the islet suspension was measured by using a LDH assay kit to measure absorbance at 562 nm. The optimal concentration of the neutrophil elastase inhibitor was examined by adding 2 to 200 μM of the neutrophil elastase inhibitor, sivelestat, in culturing mouse islets in the presence of various concentrations of neutrophil elastase, and similarly measuring the amount of LDH. The cytotoxicity was expressed as the percentage (%) of the amount of LDH contained in the supernatant in the sum of the amount of LDH contained in the supernatant and the amount of LDH contained in the islet suspension.

## CC(C)(C)C(=O)Oc1ccc(S(=O)(=O)Nc2ccccc2C(=O)NCC(=O)O)cc1 [sivelestat]
From suppression of LDH leakage among 2, 20, 200 μM
  optimal concentration of the neutrophil elastase inhibitor: 20 µM
Mouse islets with neutrophil elastase 0.31 to 10 μg/mL, 2, 20 or 200 μM sivelestat compared, result at 20 μM
  damage of islet cells (cytotoxicity, LDH in supernatant as % of total LDH): most suppressed
